Columns and labels:
[1] = PET/MRI distribution of ^13N-oxytocin following IV administration in rats; assay type: in vivo; details: female Sprague Dawley rat, 13.3 MBq in the tail vein (IV), 30 min dynamic PET, FIG. 2
Procedure: Anesthetised rats are scanned using a microPET scanner (nanoscan microPET/IT MRI, Mediso Ltd, Budapest, Hungary). Body temperature is maintained and circulation and respiration are monitored. First, a structural T2-weighted MRI scan is obtained for attenuation correction. Subsequently, the rat is injected through the tail vein with the ^13N-oxytocin radiotracer. […] The list-mode data of the emission scans are split into a dynamic sequence of frames. The data are reconstructed per time frame employing an iterative reconstruction. Appropriate correction factors are applied producing quantitative dynamic images (matrix size (x, y, z) 93, 93, 120. Voxel size 0.4 mm. 3D Tera-Tomo reconstruction with Monte Carlo based estimation, attenuation and scatter correction). […] Sprague-Dawley rat MRI brain atlas using PMOD software (version 3.7, PMOD Technologies Ltd, Zurich, Switzerland), a commercially available software package for biomedical image quantification, to acquire data in regions of interest. The results are expressed as dimensionless standardized uptake values (SUVs): [tissue activity concentration (MBq/g)×body weight (g)/injected dose (MBq)].
In one study, female Sprague Dawley rats were housed two per cage under a 12 h light/12 h dark cycle at an average temperature of 21° C. and humidity of 55%, with ad libitum access to food and water. […]

[2] = PET/MR distribution of ^13N-oxytocin following nasal administration in rats; assay type: in vivo, rat; details: intranasal, approx. 100 μl (1-2 MBq) per nostril in 10% ethanol/90% saline, 60 min PET scan, FIG. 3
Procedure: Anesthetised rats are scanned using a microPET scanner (nanoscan microPET/IT MRI, Mediso Ltd, Budapest, Hungary). Body temperature is maintained and circulation and respiration are monitored. First, a structural T2-weighted MRI scan is obtained for attenuation correction. Subsequently, the rat is injected through the tail vein with the ^13N-oxytocin radiotracer. A list-mode protocol is used with a 60-min acquisition time. The list-mode data of the emission scans are split into a dynamic sequence of frames. The data are reconstructed per time frame employing an iterative reconstruction. Appropriate correction factors are applied producing quantitative dynamic images (matrix size (x, y, z) 93, 93, 120. Voxel size 0.4 mm. 3D Tera-Tomo reconstruction with Monte Carlo based estimation, attenuation and scatter correction). A summed PET image of each 60 min scan is co-registered to an average Sprague-Dawley rat MRI brain atlas using PMOD software (version 3.7, PMOD Technologies Ltd, Zurich, Switzerland), a commercially available software package for biomedical image quantification, to acquire data in regions of interest. The results are expressed as dimensionless standardized uptake values (SUVs): [tissue activity concentration (MBq/g)×body weight (g)/injected dose (MBq)].
The distribution of ^13N-oxytocin following nasal administration in rats is tested. […]

[3] = human patients, migraine headache pain, after administration; cited from earlier work

SMILES: CC[C@H](C)[C@@H]1NC(=O)[C@H](Cc2ccc(O)cc2)NC(=O)[C@@H](N)CSSC[C@@H](C(=O)N2CCC[C@H]2C(=O)N[C@@H](CC(C)C)C(=O)NCC(N)=O)NC(=O)[C@H](CC(N)=O)NC(=O)[C@H](CCC(N)=O)NC1=O [oxytocin, Cys-Tyr-Ile-Gln-Asn-Cys-Pro-Leu-Gly]
- brain uptake / CNS penetration (PET and MR scans) [1]: lack of CNS penetration
- brain uptake / CNS penetration (PET/MR overlay) [2]: lack of CNS penetration
- initial period before onset of significant analgesia [3]: up to 2 hours
- time to maximal analgesic effect [3]: 4 h

— patent publication US12466855B2, “Labeled oxytocin and method of manufacture and use” (TONIX PHARMA LIMITED, priority 2018, dated 2025)
